Results from patent US20190223483A1, “SENSORY MODIFIER COMPOUNDS” (CARGILL, INCORPORATED, priority 2017, published 2019).

Assay: Roundtable assessment of astringency
Format: in vivo
Conditions: RebM 700 ppm, modifier between 0 ppm and about 500 ppm
Procedure: For other sweetness attributes, the solutions were tested by a panel of at least four individuals that are highly-trained in tasting steviol glycoside solutions. The highly-trained panelists used a roundtable methodology to assess each sweetness attribute. To test each solution, the highly-trained panelists dispensed approximately 2 mL of each solution into their own mouths by transfer pipet, dispersed the solution by moving their tongues, and recorded a value for the particular sweetness attribute being tested. Between tasting solutions, the panelists were able to cleanse their palates with water. For each sweetness attribute, the panelist agreed on a descriptive scale with relative intensities assigned for each sweetness attribute and then recorded the values for each sweetness attribute against this. For example, this roundtable assessment of sweetness linger assigned a scale of 0 to 6 with a score of 0 indicating no sweetness linger and a score of 6 indicating extreme sweetness linger. Roundtable assessment of sweetness linger assigned a scale of 0 to 6 with a score of 0 indicating no sweetness linger and a score of 6 indicating extreme sweetness linger (0=none, 1=trace, 2=slight, 3=moderate, 4=definite, 5=strong, 6=extreme). Roundtable assessment of rounded assigned a scale of 0 to 3 with a score of 0 indicating spikey and a score of 3 indicating desirable rounded (0=none, 1=mostly spikey, some rounded, 2=mostly rounded, some spikey, 3=rounded). Roundtable assessment of mouthfeel assigned a scale of 0 to 2 with a score of 0 indicating water and a score of 2 indicating syrupy (0=water, 1=sucrosey, 2=syrupy). Roundtable assessment of bitterness assigned a scale of 0 to 6 with a score of 0 indicating no bitterness and a score of 6 indicating extreme sweetness linger (0=none, 1=trace, 2=slight, 3=moderate, 4=definite, 5=strong, 6=extreme). Roundtable assessment of off tastes assigned a scale of 0 to 6 with a score of 0 indicating no bitterness and a score of 6 indicating extreme off tastes (0=none, 1=trace, 2=slight, 3=moderate, 4=definite, 5=strong, 6=extreme).
Roundtable assessment of botanical notes assigned a scale of 0 to 5 with a score of 0 indicating no botanical notes and a score of 5 indicating strong (0=none, 1=trace, 2=slight, 3=moderate, 4=definite, 5=strong).
Solutions of steviol glycosides and sensory modifier compound were prepared at increasing ratios of sensory modifier to steviol glycoside by weight. […] The concentration of steviol glycosides was 700 ppm in each solution. The solutions were tested for astringency.

O=C(/C=C/c1ccc(O)c(O)c1)O[C@@H](C(=O)O)[C@@H](OC(=O)/C=C/c1ccc(O)c(O)c1)C(=O)O [tartaric backbone (cichoric acid), cichoric acid]
Astringency: imperceptible
